What was measured:
pluripotent stem cells = details: LLY-507 and AZD5153 combined, monolayer on Matrigel-coated plates; cited from earlier work
HADC 100 ES-MSC = assay: Pellet culture chondrogenesis, histology and immunohistochemistry; assay type: cell-based, human; details: HADC 100 ES-MSC, 3 weeks, Safranin-O, collagen type I and II
Description: Monolayer-expanded ES-MSC (passage 2-5) were detached using Accutase® and 0.5×10^6 cells in 0.5 ml of chondrogenic medium were centrifuged at 900 rpm (~770 G) for 5 minutes to form high-density pellets. At least 5-6 pellets, for each ES-MSC condition, were cultured in serum-free chondrogenic medium consisting of Dulbecco's Modified Eagle Medium (Mediatech Inc., Manassas, VA), 1×ITS supplement (Sigma-Aldrich, St. Louis, MO), 100 nM Dexamethasone (Sigma), 1.25 mg/ml human serum albumin (Bayer, Leverkusen, Germany), 100 μM ascorbic acid 2-phosphate (Sigma), 1% penicillin/streptomycin/gentamycin (PSG, Gibco, Carlsbad, CA), and 10 ng/ml TGFβ3 (PeproTech, Rocky Hill, NJ). Pellets for ex vivo implantation were cultured for 3 days before implantation; pellets for histologic or gene expression analysis were maintained in culture for 3 weeks with media changes every 3 to 4 days.
Cell pellets and explants were fixed in Z-Fix (3.7% formaldehyde, Anatech Ltd., Battle Creek, MI), processed for embedding in paraffin, and cut into 4 μm-thick sections. Sections were stained with Safranin-O and Fast Green to visualize glycosaminoglycan distribution in the tissues. Alzarin Red S staining was used to detect the presence of mineralized matrix.
For assessment of collagen types I and II, sections were pretreated with pepsin (Digest-All 3, Thermo Fisher Scientific) for 9 minutes at 37° C. in a humid chamber before incubation at 4° C. for 12 to 16 hours with the following primary antibodies: rabbit anti-human collagen type I antibody (Ab 34710, Abcam, Cambridge, MA) 1 μg/ml; or mouse anti-human collagen type II (II-II6B3, Hybridoma Bank, University of Iowa) 2 μg/ml. For color development, the ImmPRESS secondary DAB (brown) or AP (red) kits (Vector Laboratories, Burlingame, CA) was used. Isotype controls were used to monitor non-specific staining.

[1] = tested on: ex vivo osteoarthritic cartilage explants; assay: Ex vivo human osteoarthritic cartilage defect repair with fibrin-ECM constructs or pellets; assay type: cell-based; details: implanted as hydrogel or pellets, 3 weeks, serum-free chondrogenic medium with TGFβ3 10 ng/ml
Description: Monolayer cultured ES-MSC were suspended in a hydrogel wafer composed of collagen II (Innovative Research Inc. Novi, MI), hyaluronate (Supartz FX sodium hyaluronate, Seikagaku Corp. Tokyo, Japan), chondroitin sulfate (Sigma-Aldrich) and fibrin (Baxter Healthcare, Deerfield, IL) at a density of 20×10^6 cells per ml. The fibrinogen and thrombin components were prepared separately. To each fibrinogen component, 2 mg/ml sodium hyaluronate, 2 mg/ml chondroitin sulfate and 6 mg/ml collagen II was added (2× concentration of final). Cells were added to the thrombin component at a density of 40×10^6 cells per ml. Thrombin and fibrinogen components in individual syringes were attached to a Baxter DUO mixing syringe and extruded to form the coagulated constructs. The constructs were either directly implanted into ex vivo cartilage tissue or coagulated in 6 well tissue culture plates for 4 to 8 minutes before 4-6 ml of chondrogenic medium was added. To prevent shrinkage of the constructs during culture, the gels were held on AdminPatch microneedle arrays (AdminMed, Sunnyvale, CA) for the duration of their culture.
Osteochondral tissues were obtained from patients ranging between 60 to 70 years of age undergoing total knee arthroplasty within 4-6 hours of surgery (approved by Scripps Institutional Review Board) as previous described. Cartilage disks (6 mm in diameter and ~2-3 mm thick) were harvested from the osteochondral specimens using a sterile dermal punch. The cartilage tissue was cultured in medium consisting of DMEM (Mediatech Inc., Manassas, VA) supplemented with 10% calf serum (Omega Scientific Inc., Tarzana, CA) and 1% Penicillin-Streptomycin-Gentamycin (Life Technologies, Carlsbad, CA). Cartilage disks were maintained in 6-well plates (2-4 per well) in 8 ml medium for 72 hours before creation of the surgical defect. A flame-sterilized stainless-steel burr was used create defects approximately 2×2 mm wide and 0.5 to 1 mm deep. These defects were filled with pellets or hydrogel constructs trimmed to size using 2 mm dermal biopsy punches. […]

hiPSC = details: CHIR99021 and TTNPB used together; cited from earlier work
[2] = tested on: ex vivo human meniscus tissue; assay: ES-MSC on growth factor conjugated collagen scaffolds implanted into ex vivo human meniscus defects; assay type: cell-based; details: growth factor conjugated scaffold, 2 weeks in vitro, 5 weeks in ex vivo meniscus defect; ES-MSC from SB525334
Description: In a similar experiment, meniscus cartilage-like tissues produced by seeding ES-MSC derived from ALK-5 inhibitor SB525334 upon blow spun collagen scaffolds were implanted into ex vivo human meniscus defects. ES-MSC were seeded upon a glutaraldehyde crosslinked pneumatospun collagen type I scaffold (3.5×1 mm disks) that was conjugated with growth factors (TGFb1, TGFb3 or PDGFbb) or unconjugated (control). After 2 weeks in differentiation medium in vitro, the disks were implanted into 3.5 mm defects formed in ex vivo human meniscus tissue and cultured for 5 weeks.

For `Cc1cn(CCN2CCN(c3ccccc3-c3cc(C#N)cc(C(=O)NCCCN4CCCC4)c3)CC2)c2ccccc12` [LLY-507], the “induction of MSC phenotype” value (pluripotent stem cells) is listed as “successfully induced MSC phenotype”.

In the case of `O=C(NC1CCOCC1)c1ccc(-c2cc(-c3c[nH]nc3-c3ccccn3)ccn2)cc1` [GW788388], the “cartilage-like tissue formation in high density pellets” value (HADC 100 ES-MSC) is reported as “also produced cartilage-like tissue” and the “cartilaginous neo-tissue formation in ex vivo osteoarthritic explants” value [1] is reported as “formed equally well”.

In the case of `C/C(=C\c1ccc(C(=O)O)cc1)c1ccc2c(c1)C(C)(C)CCC2(C)C` [TTNPB], the “collagen type II immunocytochemical staining of chondroprogenitors” value (hiPSC) is listed as “abundant collagen type II immunocytochemical staining”.

For `COc1nnc2ccc(N3CCC(c4ccc(OCCN5CCN(C)C(=O)[C@H]5C)cc4)CC3)nn12` [AZD5153], the “induction of MSC phenotype” value (pluripotent stem cells) is given as “successfully induced MSC phenotype”.

With “TGFβ1: growth factor conjugated to pneumatospun collagen type I scaffold” the “collagen type of neo-meniscus like ECM” value [2] was “higher in collagen type II”.

In the case of `Cc1c[nH]c(-c2cnc(NCCNc3ccc(C#N)cn3)nc2-c2ccc(Cl)cc2Cl)n1` [CHIR99021], the “collagen type II immunocytochemical staining of chondroprogenitors” value (hiPSC) is listed as “abundant collagen type II immunocytochemical staining”.

B1: PDGFbb: growth factor conjugated to pneumatospun collagen type I scaffold (protein, UniProt P01127 82-190, looked up)
Platelet-derived growth …: SLGSLTIAEPAMIAECKTRTEVFEISRRLIDRTNANFLVWPPCVEVQRCSGCCNNRNVQCRPTQVQLRPVQVRKIEIVRKKPIFKKATVTLEDHLACKCETVAAARPVT
modifications: BB homodimer; conjugated to collagen scaffold
In the case of B1, the “collagen type of neo-meniscus like ECM” value [2] is reported as “both collagen type I and II rich ECM”.

B2: TGFb3: growth factor conjugated to pneumatospun collagen type I scaffold (protein, UniProt P10600 301-412, looked up)
Transforming growth factor …: ALDTNYCFRNLEENCCVRPLYIDFRQDLGWKWVHEPKGYYANFCSGPCPYLRSADTTHSTVLGLYNTLNPEASASPCCVPQDLEPLTILYYVGRTPKVEQLSNMVVKSCKCS
modifications: conjugated to collagen type I scaffold
For B2, the “collagen type of neo-meniscus like ECM” value [2] was “higher in collagen type II”.
